Measurements as given in patent EP1972623A1, “Arylpyridazines as fungicides” (Bayer CropScience AG, priority 2007, dated 2008).

assay: logP determination via HPLC retention times (calibration with unbranched alkan-2-ones); format: physicochemical; conditions: HPLC on reversed-phase C 18 columns per EEC Directive 79/831 Annex V.A8; acidic mobile phase (0.1% aqueous formic or phosphoric acid) and acetonitrile, linear gradient 10% to 95% acetonitrile
Excerpt: Die Kalibrierung wurde jeweils mit unverzweigten Alkan-2-onn (3 bis 16 Kohlenstoff Atome) mit bekannten IogP Werten durchgeführt (Bestimmung von den logP Werten über die Retentionszeiten durch lineare Interpolation zwischen zwei bestimmten Alkazionen). Die Lambda-max Werte wurden jeweils in den Maxima der Chromatographie-Signale durch UV Spektren zwischen 190nm und 400nm bestimmt.

Row | chromatographic logP | Molecule
1 | 3.18 | Cc1ccccc1-c1c(Cl)nnc(C)c1-c1cccs1 [Beispiel 190]

same assay, conditions: HPLC on reversed-phase C 18 columns, EEC Directive 79/831 Annex V.A8; acidic aqueous mobile phase / acetonitrile, linear gradient 10% to 95% acetonitrile

Row | Molecule | logP | chromatographic logP
2 | Cc1nnc(Cl)c(-c2ccccc2Cl)c1-c1ccc(Cl)s1 [Beispiel 58] | 4,01 | –
3 | Cc1nnc(Cl)c(-c2ccc(F)cc2Br)c1-c1cccs1 [compound 11] | – | 3.56
4 | Cc1nnc(Cl)c(-c2c(F)cccc2Cl)c1-c1cccs1 [compound 55] | – | 3.33

Further lines, results first:

Row | logP | chromatographic logP | Molecule
5 | – | 4.33 | Cc1nnc(Cl)c(-c2cccc3c2OC(F)(F)O3)c1-c1ccc(Cl)s1 [compound 1]
6 | – | 4.28 | Cc1nnc(Cl)c(-c2ccc(F)cc2Br)c1-c1ccc(Cl)s1 [compound 10]
7 | – | 4.21 | Cc1nnc(Cl)c(-c2ccc(F)cc2Cl)c1-c1ccc(Cl)s1 [compound 38]
8 | – | 4.44 | Cc1nnc(Cl)c(-c2c(Cl)cccc2Cl)c1-c1ccc(Cl)s1 [compound 46]
9 | – | 4.16 | Cc1ccc(-c2c(C)nnc(Cl)c2-c2c(Cl)cccc2Cl)nc1C [compound 47]

same assay, conditions: from retention times, linear interpolation between alkan-2-ones

Row | Molecule | logP | chromatographic logP
10 | 3-(2-Methyl)-4-(2-thienyl)-5-hydroxy-5-methylfuran-2(5H)-on | 2.59 | –
11 | Cc1ccc(C2=C(c3cc(F)c(F)cc3F)C(=O)OC2(C)O)nc1C (centres unmarked) [3-(2,4,5-Trilluorphenyl)4-(5,6-Dimethyl-2-pyridyl)-5-hydroxy-5-methylfuran-2(5H)-on] | – | 2.89
12 | Cc1ccc(C2=C(c3c(Cl)cccc3Cl)C(=O)OC2(C)O)nc1C (centres unmarked) [3-(2,6-Dichlorphenyl)-4-(5,6-Dimethyl-2-pyridyl)5-hydroxy-5-methylfuran-2(5H)-on] | – | 3.14
13 | CC1(O)OC(=O)C(c2c(F)cccc2F)=C1c1nccs1 (centres unmarked) [3-(2,6-Difluorphonyl)-4-(2-thiazolyl)-5-hydroxy-5-methylfuran-2(5H)-on] | – | 1.92
14 | CC1(O)OC(=O)C(c2c(F)cccc2Cl)=C1c1cccs1 (centres unmarked) [3-(2-Chlor-6-fluorphenyl)-4-(2-thienyl)-5-hydroxy-5-methylfuran-2(5H)-on] | – | 2.61
15 | CC1(O)OC(=O)C(c2c(F)cccc2Cl)=C1c1ccc(Cl)s1 (centres unmarked) [3-(2-Chlor-6-fluorphenyl)-4-(5-chlor-2-thienyl)-5-hydroxy-5-methylfuran-2(5H)-on] | – | 3.13
16 | CC1(O)OC(=O)C(c2ccccc2Cl)=C1c1ccc(Cl)s1 (centres unmarked) [3-(2-Chlorphenyl)-4-(5-chlor-2-thienyl)-5-hydroxy-5-methylfuran-2(5H)-on] | – | 3.91
17 | CC1(O)OC(=O)C(c2ccccc2F)=C1c1cccs1 (centres unmarked) [3-(2-Fluorphenyl)-4-(2-thienyl)-5-hydroxy-5-methylfuran-2(5H)-on] | – | 2.29
18 | CC1(O)OC(=O)C(c2cccc(Cl)c2)=C1c1cccs1 (centres unmarked) [3-(3-Chlorphenyl)-4-(2-thienyl)-5-hydroxy-5-methylfuran-2(5H)-on] | – | 2.73
19 | Cc1n[nH]c(=O)c(-c2ccccc2Cl)c1-c1cccs1 [4-(2-Chlorphenyl)-5-(2-thienyl)-6-methylpyridazin-3(2H)-on] | – | 2.19
20 | Cc1n[nH]c(=O)c(-c2ccccc2F)c1-c1cccs1 [4-(2-Fluorphonyl)-5-(2-thienyl)-6-methylpyridazin-3(2H)-on] | – | 2.06
21 | Cc1n[nH]c(=O)c(-c2cccc(Cl)c2)c1-c1ccc(Cl)s1 [4-(3-Chlorphenyl)-5-(5-chlor-2-thienyl)-6-methylpyridazin-3(2H)-on] | – | 3.04
22 | CC1(O)OC(=O)C(c2c(Cl)cccc2Cl)=C1c1ccc(Cl)s1 (centres unmarked) [4-(5-Chlor-2-thienyl)-3-(2,6-dichlorphenyl)-5-hydroxy-5-methylfuran-2(5H)-on] | – | 3.26
23 | CC1(O)OC(=O)C(c2ccccc2F)=C1c1ccc(Cl)s1 (centres unmarked) [4-(5-Chlor-2-thienyl)-3-(2-fluorphenyl)-5-hydroxy-5-methylfuran-2(5H)-on] | – | 2.93
24 | CC1(O)OC(=O)C(c2cc(F)c(F)cc2F)=C1c1ccc(Cl)s1 (centres unmarked) [4.(5-Chlor-2-thienyl)-3-(2,4,5-trifluorphenyl)-5-hydroxy-5-methylfuran-2(5H)-on] | – | 3.17
25 | Cc1n[nH]c(=O)c(-c2c(F)cccc2F)c1-c1nccs1 [5-(2-Thiazolyl)-4-(2,6-difluorphenyl)-6-methylpyridazin-3(2H)-on] | – | 1.57
26 | Cc1n[nH]c(=O)c(-c2cc(F)c(F)cc2F)c1-c1cccs1 [5-(2-thienyl)-4-(2,4,5-trifluorphenyl)-6-methylpyridazin-3(2H)-on] | – | 2.32
27 | Cc1n[nH]c(=O)c(-c2c(F)cccc2F)c1-c1ccncc1 [5-(4-Pyridyl)4-(2,6-difluorphenyl)-6-methylpyridazin-3(2H)-on] | – | 0.93
28 | Cc1n[nH]c(=O)c(-c2cc(F)c(F)cc2F)c1-c1ccc(Cl)s1 [5-(5-Chlor-2-thienyl)-4-(2,4,5-trifluorphanyl)-6-methylpyridazin-3(2H)-on] | – | 2.88
29 | Cc1n[nH]c(=O)c(-c2ccccc2F)c1-c1ccc(Cl)s1 [5-(5-Chlor-2-thienyl)-4-(2-fluorphenyl)-6-methylpyridazin-3(2H)-on] | – | 2.64
30 | Cc1nnc(Cl)c(-c2ccccc2Cl)c1-c1ccc(Cl)s1 [Beispiel 58] | – | 4.01

Now from value to molecule:

Row | logP | chromatographic logP | Molecule
31 | – | 2.57 | CC1(O)OC(=O)C(c2cc(F)c(F)cc2F)=C1c1cccs1 (centres unmarked) [3-(2,4,5-Trifluorphonyl)-4-(2-thienyl)-5-hydroxy-5-methylfuran-2(5H)-on]
32 | – | 2.57 | CC1(O)OC(=O)C(c2c(Cl)cccc2Cl)=C1c1cccs1 (centres unmarked) [3-(2,6-Dichlorphenyl)-4-(2-thienyl)-5-hydroxy-5-methylfuran-2(5H)-on]
33 | – | 2.39 | CC1(O)OC(=O)C(c2c(F)cccc2F)=C1c1cccs1 (centres unmarked) [3-(2,6-Difluorphenyl)4-(2-thienyl)-5-hydroxy-5-methylfuran-2(5H)-on]
34 | – | 1.4 | CC1(O)OC(=O)C(c2c(F)cccc2F)=C1c1ccncc1 (centres unmarked) [3-(2,6-Difluorphenyl)-4-(4-pyridyl)-5-hydroxy-5-methylfuran-2(5H)-on]
35 | – | 2.65 | Cc1ccc(C2=C(c3c(F)cccc3F)C(=O)OC2(C)O)nc1C (centres unmarked) [3-(2,6-Difluorphenyl)-4-(5,6-Dimethyl-2-pyridyl)-5-hydroxy-5-methylfuran-2(5H)-on]
36 | – | 2.64 | CC1(O)OC(=O)C(c2ccc(F)cc2Br)=C1c1cccs1 (centres unmarked) [3-(2-Brom-4-fluorphenyl)-4-(2-thienyl)-5-hydroxy-5-methylfuran-2(5H)-on]
37 | – | 3.3 | CC1(O)OC(=O)C(c2ccc(F)cc2Br)=C1c1ccc(Cl)s1 (centres unmarked) [3-(2-Brom-4-fluorphenyl)-4-(5-chlor-2-thienyl)-5-hydroxy-5-methylfuran-2(5H)-on]
38 | – | 2.68 | CC1(O)OC(=O)C(c2ccc(F)cc2Cl)=C1c1cccs1 (centres unmarked) [3-(2-Chlor-4-fluorphenyl)-4-(2-thienyl)-5-hydroxy-5-methylfuran-2(5H)-on]
39 | – | 3.24 | CC1(O)OC(=O)C(c2ccc(F)cc2Cl)=C1c1ccc(Cl)s1 (centres unmarked) [3-(2-Chlor-4-fluorphenyl)-4-(5-chlor-2-thienyl)-5-hydroxy-5-methylfuran-2(5H)-on]
40 | – | 2.44 | CC1(O)OC(=O)C(c2ccccc2Cl)=C1c1cccs1 (centres unmarked) [3-(2-Chlorphenyl)-4-(2-thienyl)-5-hydroxy-5-methylfuran-2(5H)-on]
41 | – | 3.38 | CC1(O)OC(=O)C(c2cccc(Cl)c2)=C1c1ccc(Cl)s1 (centres unmarked) [3-(3-Chlorphenyl)-4-(5-chlor-2-thienyl)-5-hydroxy-5-metylfuran-2(5H)-on]
42 | – | 2.43 | Cc1n[nH]c(=O)c(-c2c(Cl)cccc2Cl)c1-c1cccs1 [4-(2,6-Dichlorphenyl)-5-(2-thienyl)-6-methylpyridazin-3(2H)-on]
43 | 2.35 | – | Cc1ccc(C2=C(c3c(F)cccc3F)C(C)(O)OC2=O)o1 (centres unmarked) [4-(2,6-Difluorphenyl)-3-(5-Methyl-2-furyl)-5-hydroxy-5-methylfuran-2(5H)-on]
44 | – | 3.03 | Cc1n[nH]c(=O)c(-c2ccc(F)cc2Br)c1-c1ccc(Cl)s1 [4-(2-Brom-4-fluorphenyl)-5-(5-chlor-2-thienyl)-6-methylpyridazin-3(2H)-on]
45 | – | 2.97 | Cc1n[nH]c(=O)c(-c2ccc(F)cc2Cl)c1-c1ccc(Cl)s1 [4-(2-Chlor-4-fluorphenyl)-5-(5-chlor-2-thienyl)-6-methylpyridazin-3(2H)-on]
46 | – | 2.83 | Cc1n[nH]c(=O)c(-c2ccccc2Cl)c1-c1ccc(Cl)s1 [4-(2-Chlorphenyl)-5-(5-chlor-2-thienyl)-6-methylpyridazin-3(2H)-on]
47 | – | 3.41 | CC1(O)OC(=O)C(c2cccc3c2OC(F)(F)O3)=C1c1ccc(Cl)s1 (centres unmarked) [4-(5-Chlor-2-thienyl)-3-(2,2-difluor-1,3-benzodioxol-4-yl)-5-hydroxy-5-methylfuran-2(5H)-on]
48 | – | 2.94 | CC1(O)OC(=O)C(c2c(F)cccc2F)=C1c1ccc(Cl)s1 (centres unmarked) [4-(5-Chlor-2-thienyl)-3-(2,6-difluorphonyl)-5-hydroxy-5-methylfuran-2(5H)-on]
49 | – | 2.06 | Cc1ccc(-c2c(C)n[nH]c(=O)c2-c2cc(F)c(F)cc2F)nc1C [5-(5,6-Dimethyl-2-pyridyl)-4-(2,4,5-trifluorphenyl)-6-methylpyridazin-3(2H)-on]
50 | – | 2.11 | Cc1ccc(-c2c(C)n[nH]c(=O)c2-c2c(Cl)cccc2Cl)nc1C [5-(5,6-Dimethyl-2-pyridyl)-4-(2,6-dichlorphenyl)-6-methylpyridazin-3(2H)-on]
51 | – | 3.18 | Cc1n[nH]c(=O)c(-c2cccc3c2OC(F)(F)O3)c1-c1ccc(Cl)s1 [5-(5-Chlor-2-thienyl)-4-(2,2-difluor-1,3-benzodioxol-4-yl)-6-methylpyridazin-3(2H)-on]
52 | – | 3.11 | Cc1n[nH]c(=O)c(-c2c(Cl)cccc2Cl)c1-c1ccc(Cl)s1 [5-(5-Chlor-2-thienyl)-4-(2,6-dichlorphenyl)-6-methylpyridazin-3(2H)-on]
53 | – | 2.19 | Cc1ccc(-c2c(C)n[nH]c(=O)c2-c2c(F)cccc2F)o1 [5-(5-Methyl-2-furyl)-4-(2,6-difluorphenyl)-6-methylpyridazin-3(2H)-on]
